Source: ChEMBL document CHEMBL1149709, “Synthesis and SAR of 2-aryl pyrido[2,3-d]pyrimidines as potent mGlu5 receptor antagonists” (Bioorg Med Chem Lett, 2007)

The compounds below were run on Rattus norvegicus (assay: Effect on rat monosodium iodoacetate model of osteoarthritis pain assessed as inhibition of change in hind paw weight at 10 mg/kg, po after 4 hrs). Conditions: in vivo; call rule not given here.
Assay type: organism-based
Set-up: dose 10 mg/kg, route oral

Activity	Structure (SMILES)
Active	COc1cc(C#N)cc(-c2ncc3ccc(C)nc3n2)c1

What follows are compounds tested against Metabotropic glutamate receptor 5 (Rattus norvegicus, UniProt P31424) (assay: Antagonistic activity at rat mGluR5 expressed in CHO cells assessed as inhibition of quisqualate stimulated calcium mobilization by FLIPR technology). Conditions: not given.
Assay type: functional, cell-based

Chain of Metabotropic glutamate receptor 5 (P31424 whole entry): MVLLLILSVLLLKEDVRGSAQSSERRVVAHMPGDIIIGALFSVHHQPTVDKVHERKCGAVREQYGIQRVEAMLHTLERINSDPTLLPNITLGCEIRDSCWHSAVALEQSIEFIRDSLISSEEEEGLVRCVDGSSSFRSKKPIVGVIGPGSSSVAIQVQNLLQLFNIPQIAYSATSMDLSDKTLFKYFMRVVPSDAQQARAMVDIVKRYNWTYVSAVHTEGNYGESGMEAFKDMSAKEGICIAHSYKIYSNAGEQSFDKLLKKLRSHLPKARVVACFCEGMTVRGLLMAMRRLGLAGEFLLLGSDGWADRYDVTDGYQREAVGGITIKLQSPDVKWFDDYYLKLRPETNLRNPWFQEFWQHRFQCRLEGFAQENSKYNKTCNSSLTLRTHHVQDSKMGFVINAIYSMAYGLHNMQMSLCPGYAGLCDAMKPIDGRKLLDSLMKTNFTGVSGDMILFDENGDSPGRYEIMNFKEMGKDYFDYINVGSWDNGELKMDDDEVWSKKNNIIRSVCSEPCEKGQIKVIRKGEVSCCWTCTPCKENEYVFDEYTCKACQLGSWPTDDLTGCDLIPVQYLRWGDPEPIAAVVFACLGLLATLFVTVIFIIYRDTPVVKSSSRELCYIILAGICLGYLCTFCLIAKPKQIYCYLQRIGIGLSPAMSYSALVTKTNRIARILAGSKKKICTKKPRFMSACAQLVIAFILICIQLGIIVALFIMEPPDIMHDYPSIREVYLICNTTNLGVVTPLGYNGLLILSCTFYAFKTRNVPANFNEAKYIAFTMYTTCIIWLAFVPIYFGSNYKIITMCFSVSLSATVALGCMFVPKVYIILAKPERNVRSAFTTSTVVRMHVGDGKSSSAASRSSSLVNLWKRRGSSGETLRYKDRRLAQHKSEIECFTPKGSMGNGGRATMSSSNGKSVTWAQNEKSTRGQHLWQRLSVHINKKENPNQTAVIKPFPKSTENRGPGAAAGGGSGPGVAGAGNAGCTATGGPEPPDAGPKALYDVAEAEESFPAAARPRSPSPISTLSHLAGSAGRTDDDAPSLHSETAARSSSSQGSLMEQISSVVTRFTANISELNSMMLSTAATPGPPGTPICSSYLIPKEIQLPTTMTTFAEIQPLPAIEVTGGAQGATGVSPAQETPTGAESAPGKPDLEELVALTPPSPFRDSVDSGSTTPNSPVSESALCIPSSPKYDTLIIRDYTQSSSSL

Structure (SMILES)	IC50 [nM]
COc1cc(-c2ncc3ccc(C)nc3n2)cc(OC)c1OC	> 30000
Cc1ccc2cnc(-c3cccc(C#N)c3)nc2n1	240
Cc1ccc2cnc(-c3cccc(CN)c3)nc2n1	> 30000
Cc1ccc2cnc(-c3ccc(Br)cc3)nc2n1	> 30000
COc1ccccc1-c1ncc2ccc(C)nc2n1	> 30000
COC(=O)c1ccc(-c2ncc3ccc(C)nc3n2)cc1	> 30000
COc1cccc(-c2ncc3ccc(C)nc3n2)c1	1500
Cc1ccc2cnc(-c3cccc(S(C)(=O)=O)c3)nc2n1	> 30000
Cc1ccc2cnc(-c3ccccc3)nc2n1	2700
COc1cc(OC)cc(-c2ncc3ccc(C)nc3n2)c1	179
Cc1ccc2cnc(-c3ccc(C#N)cc3)nc2n1	> 30000
COc1cc(C#N)cc(-c2ncc3ccc(C)nc3n2)c1	1.2

Second part, the compound after the results:

IC50 [nM]	Structure (SMILES)
333	Brc1cccc(-c2ncc3cccnc3n2)c1
0.72	Cc1ccc2cnc(-c3cc(Cl)cc(Cl)c3)nc2n1
228	Clc1cc(Cl)cc(-c2ncc3cccnc3n2)c1
> 30000	Cc1ccc2cnc(-c3ccc(Cl)c(Cl)c3)nc2n1
> 30000	Cc1ccc2cnc(-c3ccc(Cl)cc3Cl)nc2n1
39.7	Cc1cc(F)cc(-c2ncc3ccc(C)nc3n2)c1
38	Cc1ccc2cnc(-c3cccc(Br)c3)nc2n1
4.95	COc1cc(C#N)cc(-c2ncc3cccnc3n2)c1
321	Cc1cc(F)cc(-c2ncc3cccnc3n2)c1
53	Cc1cccc(-c2ncc3ccc(C)nc3n2)c1
> 26100	N#Cc1cccc(-c2ncc3cccnc3n2)c1

Each compound was assayed on Rattus norvegicus (assay: Effect on rat monosodium iodoacetate model of osteoarthritis pain assessed as inhibition of change in hind paw weight at 10 mg/kg, po after 2 hrs). Conditions: in vivo.
Assay type: organism-based
Set-up: dose 10 mg/kg, route oral

Activity	Structure (SMILES)
Active	COc1cc(C#N)cc(-c2ncc3ccc(C)nc3n2)c1
